“Also recorded” adds a separate entry of the source. Read-outs that look alike come from different tables or passages of the source.
How the values were obtained:
[1] = Dynamic vapor sorption (DVS); format: physicochemical; conditions: for hygroscopicity class: DVS isotherm; for form of the material recovered from the DVS experiment by XRPD: post DVS
Description: Dynamic vapor sorption data was collected on a Surface Measurement System DVS Intrinsic instrument. The samples were not dried prior to analysis. Sorption and desorption data were collected over a range from 5% to 95% RH in 10% RH increments under a nitrogen purge. The equilibrium criteria used for the analyses were 0.001 dm/dt weight change in 5 minutes with a minimum step time of 30 minutes and maximum equilibration time of 180 minutes with a 3-minute data logging interval. Data were not corrected for the initial moisture content of the sample. The samples were identified as having low, limited or significant hygroscopicity based on the definitions in the below table.

[2] = format: physicochemical; conditions: solvent-mediated slurries, ambient temperature (Form E also 55° C. and 77° C.)
Description: Interconversion experiments were performed to identify the most thermodynamically stable anhydrous form of Compound 1 (Table 19). […] The choice of solvent affects the kinetics of polymorph conversion and not the thermodynamic relationship between polymorphic forms.
Various combinations of Forms B, E, F, and Material D were slurried with Form A at ambient and elevated temperatures (for experiments involving Form E). Different solvent systems were used and included a variety of water activities. Saturated solutions were generated and then added to the mixtures composed of approximately equivalent quantities of the forms. The mixtures were slurried for a particular duration of time and the solids harvested and analyzed by XRPD.

[3] = Differential scanning calorimetry / thermogravimetry; format: physicochemical; conditions: DSC 10° C./min
Description: DSC was performed using a Mettler-Toledo DSC3+ differential scanning calorimeter. A tau lag adjustment is performed with indium, tin, and zinc. The temperature and enthalpy are adjusted with octane, phenyl salicylate, indium, tin and zinc. The adjustment is then verified with octane, phenyl salicylate, indium, tin, and zinc. The sample was placed into a hermetically sealed aluminum DSC pan, the weight was accurately recorded, and the sample was inserted into the DSC cell. A weighed aluminum pan configured as the sample pan was placed on the reference side of the cell. The pan lid was pierced prior to sample analysis. The samples were analyzed from −25° C. to 250° C. at 10° C./min.
Thermogravimetric analyses were performed using a Mettler-Toledo TGA/DSC3+ analyzer. Temperature calibration was performed using calcium oxalate, indium, tin, and zinc. The sample was placed in an aluminum pan. The pan was hermetically sealed, the lid was pierced, and the pan was then inserted into the TG furnace. A weighed aluminum pan configured as the sample pan was placed on the reference platform. The furnace was heated under nitrogen. Samples were analyzed from 25° C. to 350° C. at 10° C./min.

[4] = format: physicochemical
Description: XRPD patterns were collected with a PANalytical X'Pert PRO MPD or a PANalytical Empyrean diffractometer using an incident beam of Cu radiation produced using an Optix long, fine-focus source. An elliptically graded multilayer mirror was used to focus Cu Kα X-rays through the specimen and onto the detector. Prior to the analysis, a silicon specimen (NIST SRM 640e) was analyzed to verify the observed position of the Si 111 peak is consistent with the NIST-certified position. A specimen of the sample was sandwiched between 3-μm-thick films and analyzed in transmission geometry. A beam-stop, short antiscatter extension, and antiscatter knife edge were used to minimize the background generated by air. Soller slits for the incident and diffracted beams were used to minimize broadening from axial divergence. Diffraction patterns were collected using a scanning position-sensitive detector (X'Celerator) located 240 mm from the specimen and Data Collector software v. 5.5.

MAM-treated rats = conditions: cited from earlier work
[5] = test system: Aged-Impaired rats (AI rats); test: Radial Arm Maze task, 2-hr delay, acute brivaracetam or seletracetam (Example 4); format: in vivo, rat; conditions: doses 0.0625-4 mg/kg i.p., 30-40 min prior to test; repeated measures ANOVA
From the text: All rats were screened in a standardized assessment of spatial cognition prior to the studies with experimental treatments. That background assessment used a well-established Morris Water Maze protocol. The MWM protocol was substantially the same as the one described in Example 1. See, also, Gallagher et al., Behav. Neurosci. 107:618-626, (1993). Briefly, the rats were trained for eight days (three trials per day) to locate a camouflaged escape platform that remained at the same location throughout training in a water maze. Every sixth trial consisted of a probe trial (free swim with no escape platform) that served to assess the development of a spatially localized search for the escape platform. During these probe trials, a learning index was generated from the proximity of the rat to the escape platform and was used to define impairment in the aged rats. The learning index is the sum of weighted proximity scores obtained during probe trials, with low scores reflecting a search near the escape platform and high scores reflecting searches farther away from the platform (Gallagher et al, 1993). Cue training (visible escape platform) occurred on the last day of training to test for sensorimotor and motivational factors independent of spatial learning. […]

[6] = test system: memory-impaired aged rats; test: Water maze after chronic brivaracetam by osmotic mini-pump (Example 4); format: in vivo, rat; conditions: brivaracetam 2 mg/kg/day by osmotic mini-pump, 14 days, probe test
Description: The radial arm maze experiments used acute administration of seletracetam (0-4 mg/kg), brivaracetam (0-4 mg/kg), or saline vehicle given by intraperitoneal injection (in a volume of 1 ml/kg) 30-40 min prior to test sessions.
Rats were trained and tested in a novel water maze environment to assess the effect of drug treatment. The water maze used here was housed in a different building and was surrounded by curtains with a novel set of patterns relative to the maze used for initial assessment of cognitive status. The training protocol consisted of 6 trials per day for 2 days to locate a submerged escape platform. On each trial, a rat was released in the maze from one of four equally spaced starting positions around the perimeter of the pool. The starting position varied from trial to trial. […] The rat was then removed from the platform and placed in a holding cage for another 40 s before the next trial. Approximately 24 hr after the last training trial, a probe test in the absence of the escape platform was given to assess spatial memory.

COCc1nnc2n1Cc1c(C#Cc3cnc(OC)s3)ncn1-c1ccc(Cl)cc1-2 [Form A]
hygroscopicity class ([1]; 5% to 95% RH): limited hygroscopicity; also recorded: low hygroscopicity | weight change through the sorption/desorption cycle ([1]; DVS, 5% to 95% RH): ~0.3% | form of the material recovered from the DVS experiment by XRPD [1]: identified as the same as the starting material | relative thermodynamic stability between crystalline forms [2]: more thermodynamically stable than Form B and Material D at ambient temperature and Form E at ambient temperature, 55° C., and 77 °C | relative thermodynamic stability between crystalline forms ([2]; listed as Form A of Compound 1): superior stability

COCc1nnc2n1Cc1c(C#Cc3cnc(OC)s3)ncn1-c1ccc(Cl)cc1-2 [Form B]
onset of DSC exotherm due to decomposition [3]: about 190 °C | relative thermodynamic stability between crystalline forms [2]: metastable relative to Form A

COCc1nnc2n1Cc1c(C#Cc3cnc(OC)s3)ncn1-c1ccc(Cl)cc1-2 [Form C]
onset of DSC exotherm due to decomposition [3]: 190 °C | stability of the form on ambient storage ([4]; 9 weeks under ambient conditions): remain unchanged | stability of the form on heating ([4]; overnight exposure to 80° C.): desolvate to Form B

COCc1nnc2n1Cc1c(C#Cc3cnc(OC)s3)ncn1-c1ccc(Cl)cc1-2 [Form E]
relative thermodynamic stability between crystalline forms [2]: metastable relative to Form A

COCc1nnc2n1Cc1c(C#Cc3cnc(OC)s3)ncn1-c1ccc(Cl)cc1-2 [Form F]
hygroscopicity class ([1]; 5% to 95% RH): limited hygroscopicity | weight gain on sorption ([1]; DVS, 5-95% RH): 1.8% | weight loss upon desorption ([1]; DVS, with significant hysteresis): 1.5% | form of the material recovered from the DVS experiment by XRPD [1]: still Form F | onset of DSC exotherm due to decomposition [3]: above 120 °C | stability of the form under vacuum ([4]; 5 days under vacuum at ambient temperature): remain unchanged

COCc1nnc2n1Cc1c(C#Cc3cnc(OC)s3)ncn1-c1ccc(Cl)cc1-2 [Material D]
relative thermodynamic stability between crystalline forms [2]: metastable relative to Form A | stability of the form on ambient storage ([4]; 7 weeks of ambient storage, mixture with Form A): Material D still remained

C#Cc1ccc2c(c1)C(c1ccccc1F)=N[C@H](C)c1c(C(=O)OCC)ncn1-2 [SH-053-2′F—R—CH3]
number of spontaneously active DA neurons in the ventral tegmental area (VTA) (MAM-treated rats; MAM rats, administered systemically or infused into the ventral HPC): reduces the number of spontaneously active DA neurons | locomotor response to amphetamine (MAM-treated rats; MAM-treated rats): is reduced

CCC[C@@H]1CC(=O)N([C@@H](CC)C(N)=O)C1 [brivaracetam, (2S)-2-[(4R)-2-oxo-4-propylpyrrolidin-1-yl]butanamide]
number of errors in the retention phase after the 2-hr delay [5]: significant effect as a function of dose | time in the target annulus vs vehicle-treated rats [6]: significantly more time in the target annulus | time in the target quadrant vs vehicle-treated rats [6]: significantly more time in the target quadrant | spatial bias for the target quadrant compared to the other control quadrants ([6]; n=3/group): significant spatial bias

CC[C@@H](C(N)=O)N1C[C@H](C=C(F)F)CC1=O [seletracetam, (2S)-2-[(4S)-4-(2,2-difluoroethenyl)-2-oxopyrrolidin-1-yl]butanamide]
number of errors in the retention phase after the 2-hr delay [5]: significant effect as a function of dose

NC1=N[C@H](O)[C@H]2[C@H]3O[C@]4(O)O[C@@H]([C@@H](O)[C@@]2(N1)[C@@H]4O)[C@]3(O)CO [tetrodotoxin]
DA neuron population activity (MAM-treated rats; rat, in vivo): completely reversed the elevated DA neuron population activity | amphetamine-induced locomotor behavior (MAM-treated rats; rat, in vivo): normalized the augmented amphetamine-induced locomotor behavior

— patent publication US20230270753A1, “COMBINATIONS OF GABAA ALPHA 5 AGONISTS AND SV2A INHIBITORS AND METHODS OF USING IN THE TREATMENT OF COGNITIVE IMPAIRMENT” (AGENEBIO, INC., priority 2020, published 2023)
